For test [1], the system named is Ae. aegypti Houston strain (pyrethroid susceptible). The test can be described thus: Toxicity assay on treated netting (Example 7), Houston strain. Format: in vivo. As to the method:
(§1) Several compounds were tested to determine their toxic effect on Ae. aegypti mosquitoes. Three mosquito strains were tested—Houston which is pyrethroid susceptible, That which is pyrethroid tolerant and Isla Mujer which is metabolically pyrethroid resistant.
(§2) The toxicity assay involved a single chamber to which treated netting was added. Twenty (20) mosquitoes were transferred to the chamber. After 1 hour, the number of knocked down mosquitoes was recorded and all mosquitoes were transferred to holding cartoons. The mosquitoes were given a 10% sucrose-soaked cotton ball and returned to the insectary. Mortaility was measured after 24 hours. A control assay using acetone-treated netting was used. Six replicates were performed at each treatment concentration.

The test system of test [2] is Ae. aegypti Thai strain (pyrethroid tolerant). Nature of the test: Toxicity assay on treated netting (Example 7), Thai strain. Format: in vivo. As to the method:
as §1, §2

Test [3] relates to Ae. aegypti Isla mujeres strain (metabolically pyrethroid resistant). The test can be described thus: Toxicity assay on treated netting (Example 7), Isla mujeres strain. Format: in vivo. Here is the method: as §1, §2
Test [4] concerns female Aedes aegypti (Thailand strain) mosquitoes. The test can be described thus: Contact irritancy assay on mosquitoes (Example 2). Format: in vivo. The following applies: netting treated at 0.0025-2.5 nmol/cm^2. Here is the method:
(§3) Four compounds of formula (I) were tested for contact irritancy (i.e., movement away from the source after physical contact) at low doses on female Aedes aegypti (Thailand strain) mosquitoes. The contact irritant response was determined by use of the contact irritant assay disclosed by Grieco et al. in “A New Classification System for the Actions of IRS Chemicals Traditionally Used for Malaria Control,” Plos One, Issue 8 (2007) (available at www.plosone.org). The assay used was a cylindrical assembly that included a metal treatment end to which 10 mosquitoes were introduced and a clear receiving chamber. The treatment end included a netting strip (nylon organdy) that was treated with the insecticide of interest at the relevant dose. A butterfly valve separated the treatment end from the remainder of the assembly.
(§4) Each composition was applied to the netting strip at a varied dose via a 1.5 ml acetone solution. Four (4) treatment concentrations were used—0.0025 nmol/cm^2, 0.025 nmol/cm^2, 0.25 nmol/cm^2 and 2.5 nmol/cm^2. Netting was allowed to dry for 15 minutes prior to placement in the cylinder. Control assays were performed with netting treated with acetone only.
(§5) For each run, 10 mosquitoes were transferred into the treatment end of the assembly and, after 30 seconds, the butterfly valve was opened. The valve was closed after 10 minutes and the number of mosquitoes in the clear end (i.e., the number of escaped mosquitoes) was tested.

For test [5] the test system is unchanged. Nature of the test: Contact irritancy and spatial repellency screening (Example 4). Format: in vivo. The following applies: Dosage 25 nmol/cm^2; mapped with 3000 other compounds. As to the method: as §3
(§6) The four compounds of formula I described in Example 2 were tested for spatial repellency (directed movement away from the chemical source without the insect making physical contact with the treated surface) at low doses on female Aedes aegypti (Thailand strain) mosquitoes. The spatial repellency response was determined by use of the spatial repellency assay disclosed by Grieco et al. in “A New Classification System for the Actions of IRS Chemicals Traditionally Used for Malaria Control” in Plos One, Issue 8 (2007) (available at www.plosone.org) which is incorporated herein by reference for all relevant and consistent purposes. The assay used was a cylindrical assembly that included a treatment chamber at one end and a control chamber at the other end. The treatment chamber included a netting strip (nylon organdy) that was treated with the insecticide of interest at the relevant dose. The treatment chamber and control chamber were connected by a clear cylinder and were separated from the clear cylinder by butterfly valves. Twenty (20) mosquitoes were introduced into the clear central chamber and the butterfly valves were opened after 30 seconds. After 10 minutes, the valves were closed and the number of mosquitoes in each chamber was counted.
Dosage was 25 nmol/cm^2. Several known compounds were also mapped for comparison—alphacypermethrin, cypermethrin, propoxur, bendiocarb, permethrin, SS220, DDT, deet and chlorpyrifos.

In test [6] the test system is Ae. Aegypti, That strain (pyrethroid tolerant). Nature of the test: Contact irritancy on pyrethroid tolerant mosquitoes (Example 5). Format: in vivo. As to the method:
as §3, §4, §5
The contact irritancy protocol of Example 2 was used to determine contact irritancy against mosquitoes (Ae. Aegypti) that had acquired metabolic resistance against pyrethroids. Alphacypermethrin and transfluthrin were also tested. Three mosquito strains were tested—Houston which is pyrethroid susceptible, That which is pyrethroid tolerant and Isla Mujer which is metabolically pyrethroid resistant.

Test [7] relates to Ae. Aegypti strains Houston, That and Isla Mujer. The test can be described thus: Spatial repellency on metabolically resistant mosquitoes (Example 6). Format: in vivo. As to the method:
as §6
The spatial repellency protocol of Example 3 was used to determine spatial repellency against mosquitoes (Ae. Aegypti) that had acquired metabolic resistance against pyrethroids. DDT and transfluthrin were also tested. Three mosquito strains were tested—Houston which is pyrethroid susceptible, That which is pyrethroid tolerant and Isla Mujer which is metabolically pyrethroid resistant.

The test system of test [8] is KDR Resisant An. Gambiae. The test can be described thus: Bottle toxicity assay (Example 8), knockdown resistant mosquitoes. The following applies: for KDR Resisant An. Gambiae (% dead (SE)): Strain Tested F123; for effectiveness against knockdown resistant strains: summary of Table 3. Format: in vivo, Anopheles gambiae. As to the method: (§7) Several compounds were tested to determine their toxic effect on knockdown resistant Anopheles gambiae mosquitoes and susceptible mosquitoes. Acetone and different amounts of pesticides were added to 250 ml bottles. In one bottle, only acetone was added as a control. The bottles were rotated in all directions while uncapped until all acetone was evaporated and the insecticide was coated onto the inside surfaces of the bottle. A number of knockdown resistant Anopheles gambiae mosquitoes were added to the bottle. The number of dead mosquitoes was recorded at 1 hour and 24 hours.

The subject of test [9] is Susceptible An. Gambiae. The test can be described thus: Bottle toxicity assay (Example 8), susceptible mosquitoes. Format: in vivo, Anopheles gambiae. The following applies: Strain Tested F123. As to the method: as §7
Where [10] appears, read: Dose 0.25 nm/cm^2, Time 24 hours.
Setting [11] is: Dose 2.5 nm/cm^2, Time 24 hours.
The mark [12] stands for this setting: Dose 0.025 nm/cm^2, Time 1 hour.
[13] abbreviates: Dose 0.025 nm/cm^2, Time 24 hours.
Where [14] appears, read: Dose 0.0025 μg/bottle, Time 1 hour.
[15] abbreviates: Dose 0.0025 μg/bottle, Time 24 hours.
Where [16] appears, read: Dose 0.025 μg/bottle, Time 1 hour.
The mark [17] stands for this setting: Dose 0.025 μg/bottle, Time 24 hours.
Setting [18] is: Dose 0.25 μg/bottle, Time 1 hour.
The mark [19] stands for this setting: Dose 0.25 μg/bottle, Time 24 hours.
[20] abbreviates: Dose 2.5 μg/bottle, Time 1 hour.
Where [21] appears, read: Dose 2.5 μg/bottle, Time 24 hours.

Molecules are shown by their SMILES.

Take `CC1(C)C(C=C(Cl)Cl)C1C(=O)OC(C#N)c1cccc(Oc2ccccc2)c1` (stereo not drawn) [Alpha-cypermethrin, alpha cypermethrin, reference compound]: the “Houston (% dead (SE))” value in [1] (Dose 0.25 nm/cm^2, Time 1 hour) is reported as 100%; in test [1] (setting [10]), 100%; in test [1] (Dose 2.5 nm/cm^2, Time 1 hour), 100%; in test [1] (setting [11]), 100%. In addition, the “Thai (% dead (SE))” value in test [2] (Dose 0.25 nm/cm^2, Time 1 hour) stood at 100%; in test [2] (setting [10]), 83.9%; in test [2] (Dose 2.5 nm/cm^2, Time 1 hour) it was 100%; in test [2] (setting [11]), 100%. In addition, the “Isla mujeres (% dead (SE))” value is listed as 96.66% in test [3] (Dose 0.25 nm/cm^2, Time 1 hour); 41.06% in test [3] (setting [10]); 100% in test [3] (Dose 2.5 nm/cm^2, Time 1 hour); 100% in test [3] (setting [11]).

On to `CC(C)c1cccc(COC(=O)C2C(C=C(Cl)C(F)(F)F)C2(C)C)c1F` (stereo not drawn) [Compound 1415], for which the “contact irritancy, dose compared with alphacypermethrin (FIG. 1)” value in test [4] is recorded as “showed contact irritancy at a lower dose than alphacypermethrin”. In addition, the “contact irritancy (FIG. 1)” value in test [4] (10 minutes) is “showed contact irritancy at relatively low doses”. Moreover, the “contact irritancy and spatial repellency relative to screened compounds (FIG. 3)” value in test [5] was “superior contact irritancy and spatial repellency relative to most screened compounds”. For the same compound, in [6], the “contact irritancy, tolerant strain (FIG. 4)” value is given as “contact irritants for tolerant strains”. Moreover, in test [7], the “spatial repellency, all strains (FIG. 5)” value was “spatial repellants for all strains”.

Consider `C/C=C/C1C(C(=O)OCc2c(F)c(F)c(COC)c(F)c2F)C1(C)C` (stereo in doubt) [Metafluthrin, metafluthrin, reference compound], for which the “Houston (% dead (SE))” value is recorded as 100% in test [1] (setting [12]); 100% in test [1] (setting [13]); 100% in test [1] (Dose 0.25 nm/cm^2, Time 1 hour); 100% in test [1] (setting [10]); 100% in test [1] (Dose 2.5 nm/cm^2, Time 1 hour); 100% in test [1] (setting [11]). For the same compound, the “Thai (% dead (SE))” value in test [2] (setting [12]) came out at 100%; in [2] (setting [13]), 89.2%; in test [2] (Dose 0.25 nm/cm^2, Time 1 hour) it was 100%; in [2] (setting [10]), 100%; in test [2] (Dose 2.5 nm/cm^2, Time 1 hour), 100%; in [2] (setting [11]), 100%. For the same compound, the “Isla mujeres (% dead (SE))” value in test [3] (setting [12]) came out at 56.3%; in test [3] (setting [13]), 21.89%; in [3] (Dose 0.25 nm/cm^2, Time 1 hour) it was 100%; in test [3] (setting [10]), 77.27%; in test [3] (Dose 2.5 nm/cm^2, Time 1 hour) it was 100%; in test [3] (setting [11]) it was 100%. The “KDR Resisant An. Gambiae (% dead (SE))” value in test [8] (setting [14]) was found to be 10%; in [8] (setting [15]) it was 25%; in [8] (setting [16]), 47%; in test [8] (setting [17]), 86%; in [8] (setting [18]), 100%; in test [8] (setting [19]), 100%. Besides, the “KDR Resisant An. Gambiae (% dead (SE))” value in test [8] (setting [20]) and in [8] (setting [21]) was 100% in each case. For the same compound, the “effectiveness against knockdown resistant strains” value in test [8] was “less effective”. The “Susceptible An. Gambiae (% dead (SE))” value is on record as 100% in test [9] (setting [14]); 86% in [9] (setting [15]); 100% in [9] (setting [16]); 100% in [9] (setting [17]); 100% in test [9] (setting [18]); 100% in [9] (setting [19]). Moreover, the “Susceptible An. Gambiae (% dead (SE))” value in test [9] (setting [20]) and in [9] (setting [21]) was 100% each time.

For the compound `CC1(C)[C@H](C=C(Cl)Cl)[C@H]1C(=O)OCc1c(F)c(F)cc(F)c1F` [Transfluthrin, transfluthrin, reference compound], the “Houston (% dead (SE))” value in test [1] (setting [12]) amounted to 100%; in [1] (setting [13]), 100%; in [1] (Dose 0.25 nm/cm^2, Time 1 hour), 100%; in test [1] (setting [10]), 100%; in test [1] (Dose 2.5 nm/cm^2, Time 1 hour), 100%; in [1] (setting [11]), 100%. The “Thai (% dead (SE))” value is 100% in [2] (setting [12]); 91.7% in test [2] (setting [13]); 100% in test [2] (Dose 0.25 nm/cm^2, Time 1 hour); 100% in [2] (setting [10]); 100% in test [2] (Dose 2.5 nm/cm^2, Time 1 hour); 100% in test [2] (setting [11]). Moreover, the “Isla mujeres (% dead (SE))” value is on record as 100% in test [3] (setting [12]); 1.6% in test [3] (setting [13]); 100% in test [3] (Dose 0.25 nm/cm^2, Time 1 hour); 100% in [3] (setting [10]); 100% in [3] (Dose 2.5 nm/cm^2, Time 1 hour); 100% in test [3] (setting [11]).

Take `CC1(C)C(C=C(Cl)Cl)C1C(=O)OCc1cccc(Oc2ccccc2)c1` (stereo not drawn) [Permethrin, permethrin, reference compound]: the “Houston (% dead (SE))” value in test [1] (Dose 0.25 nm/cm^2, Time 1 hour) worked out at 100%; in [1] (setting [10]) it was 100%; in test [1] (Dose 2.5 nm/cm^2, Time 1 hour), 100%; in [1] (setting [11]) it was 100%. Besides, the “Isla mujeres (% dead (SE))” value in test [3] (Dose 0.25 nm/cm^2, Time 1 hour) is recorded as 87.49%; in test [3] (setting [10]) it was 14.68%; in [3] (Dose 2.5 nm/cm^2, Time 1 hour), 100%; in test [3] (setting [11]), 100%. Moreover, the “KDR Resisant An. Gambiae (% dead (SE))” value in [8] (setting [18]) turned out to be 0%; in [8] (setting [19]), 24%; in test [8] (setting [20]), 25%; in test [8] (setting [21]), 78%. Besides, in test [8], the “effectiveness against knockdown resistant strains” value was “less effective”. The “Susceptible An. Gambiae (% dead (SE))” value in [9] (setting [18]), in test [9] (setting [19]), in test [9] (setting [20]) and in test [9] (setting [21]) was 100% throughout.

The values above are taken from patent publication US20150038707A1, “PROCESS FOR MAKING CGRP RECEPTOR ANTAGONISTS” (Merck Sharp & Dohme Corp., priority 2012, published 2015).
